Patent publication US20230117034A1, “PYRAZOLOTRIAZINES” (Bayer Aktiengesellschaft, priority 2019, published 2023)

What follows are compounds tested on BRCA1 mRNA expression in CAL-120 cells (assay: qRT-PCR assay: BRCA1 mRNA expression in CAL-120). Conditions: Homo sapiens; Inhibition of BRCA1 mRNA expression in CAL-120 cells; median; read-out: RTqPCR-CAL-120, IC50, BRCA1 (median).
Format: cell-based
Method: 3. qRT-PCR Assay: BRCA, ATR, MCL1 in MDA-MB-231, CAL-120
Tissue cultured human MDA-MB-231 human breast cancer cells were plated in 500 microL per well at 200,000 cells/well in a 24 well microtiter plate. After 24 h, the cells were exposed continuously for 24 h to test substances (substances were added with Tecan HP 0300 Dispenser). RNA was prepared using Qiagen RNeasy MiniKit (#74106), RNA was quantified using a NanoDrop Equipment, and 600 nano gamms of RNA was coverted to cDNA using a SuperScript VILO kit (Thermofisher #11755050) followed by qPCR amplification. BRCA1 and ATR gene expression was measured by RT-qPCR and normalised to GAPDH housekeeping gene expression. qPCR primer sets have been purchased from Thermo Fisher Scientific/Applied Biosystems: BRCA1, #Hs 01556193; ATR, #Hs 00992123; GAPDH, #Hs 03929097.

| Compound | IC50 |
| --- | --- |
| Cc1ccnc2[nH]c(CNc3nc(N4CCOCC4)nc4c(Br)cnn34)nc12 [Example 20, 8-bromo-N-[(7-methyl-3H-imidazo[4,5-b]pyridin-2-yl)methyl]-2-(morpholin-4-yl)pyrazolo[1,5-a][1,3,5]triazin-4-amine] | 17.7 nM |
| Brc1cnn2c(NCc3nnc(-c4ccccc4)[nH]3)nc(N3CCOCC3)nc12 [Example 24, 8-bromo-2-(morpholin-4-yl)-N-[(5-phenyl-4H-1,2,4-triazol-3-yl)methyl]pyrazolo[1,5-a][1,3,5]triazin-4-amine] | 34.5 nM |
| Brc1cnn2c(NCc3nc4c([nH]3)CCCC4)nc(N3CCOCC3)nc12 [Example 21, 8-bromo-2-(morpholin-4-yl)-N-[(4,5,6,7-tetrahydro-1H-benzimidazol-2-yl)methyl]pyrazolo[1,5-a][1,3,5]triazin-4-amine] | 211 nM |
